Measurements taken from PMC11521914 (Frontiers in Pharmacology, 2024).

What was measured:
[1] = tested on: normoglycemic (healthy) rats; assay: Insulin tolerance tests (insulin sensitivity assessment); assay type: in vivo, Wistar rats; conditions: healthy rats fasted 4 h
Protocol: (§1) All procedures carried out on animals were approved by the Academic Ethics and Scientific Responsibility Commission (CEARC) of the School of Sciences, UNAM with protocol numbers PI_2021_08_23, PI_2022_21_05b, and PI_2022_22_07. Wistar rats of both sexes, 8 weeks old, were acquired and maintained under standard bioterium conditions (25°C, 55% humidity and 12:12 h light and dark photoperiod) with water and food ad libitum. Treatment administration (vehicle and samples) was performed orally with the help of an esophageal cannula. Blood samples were obtained from the tail vein and glucose measurements were performed in duplicate using Accu-Chek® Active glucometers.
First, basal glucose was determined and, immediately after, treatments were given. Forty-5 min later, glucose levels were measured and then isophane insulin (Aurax®; 0.5 U/kg b. w.) was administered intraperitoneally. Glucose levels were monitored at minutes 15, 30, 60, and 120 after insulin injection. In total, 24 rats were divided into four groups (n = 6 each group): 1. Control, which received physiological solution (C); 2. […]
Where Tx is the value of glucose or insulin at each time and T0 is the baseline value. Next, AUC were calculated and compared by applying t tests for intergroup comparisons and repeated measures ANOVA followed by Dunnett post hoc tests for intragroup comparisons. […]

[2] = tested on: normoglycemic (healthy) rats; assay: Fasting glucose and insulin levels, normoglycemic rats; assay type: in vivo, Wistar rats; conditions: normoglycemic rats fasted 12 h, 2 h, glibenclamide 5 mg/kg
Protocol: as §1
(§2) Normoglycemic (healthy) and hyperglycemic rats were used after 12 h of fasting selecting those with blood glucose levels between 90 and 110 mg/dL and 180–220 mg/dL, respectively. Before the administration of the treatment and every 30 min for 2 h, glucose levels were determined and additional blood samples (approximately 300 µL) were obtained, which were immediately centrifuged at 10,000 g for 10 min. […] Insulin quantification was performed using the immunoassay Rat/Mouse Insulin ELISA kit EZRMI-13KEMD Millipore/Merck ([Espinoza-Hernández et al., 2021]). […]
(§3) Data are presented as mean ± standard error of the mean (SEM). […] Differences detected with p < 0.05 were considered statistically significant. […]

[3] = tested on: STZ-NA-hyperglycemic rats; assay: Evaluation of the hypoglycemic effect (acute glucose curves); assay type: in vivo, Wistar rats
Protocol: as §1
In summary hyperglycemia was induced as described by [Masiello et al. (1998)], rats fasted for 12 h were administered intraperitoneally with 150 mg/kg b. w. of NA and, 15 min later, 65 mg/kg b. w. of STZ was injected intravenously. After 2 weeks, animals with blood glucose values above 180 mg/dL were selected to perform the tests described below.
Basal glucose levels were assessed before giving the treatments. Immediately after the administration of treatments, glucose levels were monitored every hour for 3 h ([Espinoza-Hernández et al., 2021]). Thirty rats fasted for 4 h were divided into five groups (n = 6 each group): 1. Normoglycemic Control (N), administered with physiological solution (vehicle); 2. Hyperglycemic Control (H), which received physiological solution; 3. Hyperglycemic Control + glibenclamide, which was administered with 5 mg/kg b. w. (Aurax®) (HGli) ([Berridge et al., 1992]); 4. Hyperglycemic Group + EtOH-WCg, which received 30 mg/kg b. w. (HCg); and 5. Hyperglycemic Group + junceic acid, administered with 5.6 mg/kg b. w. (HJa).

[4] = tested on: STZ-NA-hyperglycemic rats; assay: Fasting glucose and insulin levels, hyperglycemic rats; assay type: in vivo, Wistar rats; conditions: hyperglycemic rats fasted 12 h, 2 h; glibenclamide 5 mg/kg, EtOH-WCg 30 mg/kg, junceic acid 5.6 mg/kg b.w.
Protocol: as §1, with “glucometers. […]” for “glucometers.”
as §2, §3

[5] = tested on: normoglycemic (healthy) rats; assay: Postprandial glucose and insulin levels (glucose tolerance test), normoglycemic rats; assay type: in vivo, Wistar rats; conditions: glucose load 2 g/kg
Protocol: as §1, §2, §3

[6] = tested on: STZ-NA-hyperglycemic rats; assay: Postprandial glucose and insulin levels (glucose tolerance test), hyperglycemic rats; assay type: in vivo, Wistar rats; conditions: glucose load 2 g/kg
Protocol: as §1, with “glucometers. […]” for “glucometers.”
as §2, §3

[7] = target: T1, Glucose-6-phosphatase enzyme (G6Pase) (Rattus norvegicus, UniProt P43428); assay: Glucose-6-phosphatase (G6Pase) enzyme activity inhibition assay; assay type: biochemical; conditions: rat liver microsome-enriched supernatant, 20 mM G6P
T1 construct: dilutions of the supernatant enriched with microsomes were prepared with buffer; from tissue; host or cells: rat liver, microsome-enriched fraction
T1 sequence (P43428 1-357): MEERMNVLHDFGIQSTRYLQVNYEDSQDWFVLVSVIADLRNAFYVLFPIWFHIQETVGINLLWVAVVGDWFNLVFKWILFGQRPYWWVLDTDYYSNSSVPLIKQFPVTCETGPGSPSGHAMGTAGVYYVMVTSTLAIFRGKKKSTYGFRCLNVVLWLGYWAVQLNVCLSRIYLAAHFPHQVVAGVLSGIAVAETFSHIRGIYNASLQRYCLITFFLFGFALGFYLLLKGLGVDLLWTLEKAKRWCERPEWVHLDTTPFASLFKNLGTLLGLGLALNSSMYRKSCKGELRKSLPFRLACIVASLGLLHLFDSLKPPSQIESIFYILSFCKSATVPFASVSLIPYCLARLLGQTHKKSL
Protocol: (§4) Livers were removed from 18-h fasted healthy rats (3), which were previously anesthetized with 5% isoflurane ([Unit for Laboratory Animal Medicine, 2023]). Then, they were homogenized in buffer (250 mM sucrose, 1 mM EDTA, 5 mM HEPES, pH 7.4), filtered, and subsequently subjected to differential centrifugation as described by [Andrade-Cetto and Cárdenas-Vázquez (2010)]. Both the microsome-enriched supernatant (containing the enzyme complex glucose-6-phosphatase) and the cytosolic supernatant (containing the enzyme fructose-1,6-bisphosphatase) were collected and stored at −40°C until use.
Colorimetric assays were carried out to detect the formation of a phosphomolybdate complex, which is proportional to the activity of the G6Pase enzyme complex. The reaction turns blue when G6Pase releases the inorganic phosphate and therefore the lower the color intensity, the greater the inhibition ([Arion, 1989]). […] Finally, the absorbance was measured at 830 nm.
(§5) Finally, for in vitro experiments, absorbance values were transformed into activity percentages following the next formula: Enzyme activity %=AS−ASB/AC−ACB×100
(§6) Where A S is the absorbance of the inhibitor sample at a specific concentration, A SB is the blank of the inhibitor sample, A C is the highest absorbance (without inhibitor), and A CB is the blank of the highest absorbance. […]

[8] = target: T2, Fructose-1,6-bisphosphatase enzyme (FBPase) (Rattus norvegicus, UniProt P19112); assay: Fructose-1,6-bisphosphatase (FBPase) enzyme activity inhibition assay; assay type: biochemical; conditions: rat liver cytosolic supernatant, 0.1 mM FBP
T2 construct: The reaction was started by adding the cytosolic supernatant previously diluted in buffer without substrate; from tissue; host or cells: rat liver, cytosolic supernatant
T2 sequence (P19112 1-363): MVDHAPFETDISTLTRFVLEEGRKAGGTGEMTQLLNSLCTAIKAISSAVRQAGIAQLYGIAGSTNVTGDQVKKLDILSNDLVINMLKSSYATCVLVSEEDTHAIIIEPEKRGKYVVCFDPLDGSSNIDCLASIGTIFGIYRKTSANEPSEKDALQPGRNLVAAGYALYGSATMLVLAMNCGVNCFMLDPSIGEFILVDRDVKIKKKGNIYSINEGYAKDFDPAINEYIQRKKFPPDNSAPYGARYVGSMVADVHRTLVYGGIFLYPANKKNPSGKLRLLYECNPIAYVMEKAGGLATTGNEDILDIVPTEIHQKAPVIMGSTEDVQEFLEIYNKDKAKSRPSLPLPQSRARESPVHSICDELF
Protocol: as §4
Colorimetric assays were performed to detect the formation of a phosphomolybdate-malachite green complex with the inorganic phosphate released by the enzyme FBPase. […]
The assays were carried out with substrate-enriched buffer (5 µM EDTA, 5 mM MgCl2, 50 mM Tris-HCl, 0.1 mM FBP, pH 7.2) to which the inhibitors were added at different concentrations (AMP, EtOH-WCg, or junceic acid). […] Finally, the absorbance was measured at 630 nm.
as §5, §6

SMILES: CCc1ccc(CCOc2ccc(CC3SC(=O)NC3=O)cc2)nc1 (centres unmarked) [pioglitazone]
- inverse AUC and KITT analyzes compared with control (C) ([1]; insulin tolerance test, 120 min): eliminated more glucose throughout the experiment at a higher removal rate than C
- potentiation of the glucose-lowering effect of insulin compared with control (C) ([1]; isophane insulin 0.5 U/kg i.p. 45 min after treatment, pioglitazone 20 mg/kg, EtOH-WCg 30 mg/kg, junceic acid 5.6 mg/kg b.w.): exacerbated the glucose-lowering effect of insulin

SMILES: COc1ccc(Cl)cc1C(=O)NCCc1ccc(S(=O)(=O)NC(=O)NC2CCCCC2)cc1 [glibenclamide]
- effect on plasma insulin in fasting ([2]; EtOH-WCg 30 mg/kg b.w.): increase in plasma insulin
- effect on blood glucose in fasting ([2]; EtOH-WCg 30 mg/kg, junceic acid 5.6 mg/kg b.w.): significant hypoglycemic effect
- hypoglycemic effect compared with the hyperglycemic control group (H) ([3]; 60 min after administration, maintained throughout the experiment, p < 0.05): significant hypoglycemic effect
- glucose decrease at the end of the study ([3]; STZ-NA-hyperglycemic rats fasted 4 h, oral, 3 h curve, glibenclamide 5 mg/kg, EtOH-WCg 30 mg/kg, junceic acid 5.6 mg/kg b.w.): 57%
- decrease of total blood glucose (AUC) compared with control (H) ([3]; STZ-NA-hyperglycemic rats fasted 4 h, oral, glibenclamide 5 mg/kg, EtOH-WCg 30 mg/kg, junceic acid 5.6 mg/kg b.w.): 65%
- effect on blood glucose in fasting [4]: significant hypoglycemic effect
- effect on plasma insulin in fasting [4]: increase in plasma insulin

SMILES: CCOc1cc(CC(=O)N[C@@H](CC(C)C)c2ccccc2N2CCCCC2)ccc1C(=O)O [repaglinide]
- increase of insulin levels ([5]; healthy rats, at 30 min, repaglinide 1 mg/kg b.w.): more than 500%
- effect on the hyperglycemic peak after the glucose load ([5]; normoglycemic rats, repaglinide 1 mg/kg, EtOH-WCg 30 mg/kg, junceic acid 5.6 mg/kg b.w.): significantly decreased the hyperglycemic peak
- increase of insulin levels ([6]; at 30 min, repaglinide 1 mg/kg b.w.): under 25%
- effect on postprandial hyperglycemia after the glucose load ([6]; repaglinide 1 mg/kg, EtOH-WCg 30 mg/kg, junceic acid 5.6 mg/kg b.w.): significantly decreased the hyperglycemic peak

SMILES: O=C(/C=C/c1ccc(O)c(O)c1)O[C@@H]1C[C@](O)(C(=O)O)C[C@@H](O)[C@H]1O [Clorogenic acid, chlorogenic acid]
- IC50 [7]: 346 µM
- Inhibition % [7]: 83%

SMILES: Nc1ncnc2c1ncn2[C@@H]1O[C@H](COP(=O)(O)O)[C@@H](O)[C@H]1O.O [AMP, adenosine 5′-monophosphate monohydrate]
- IC50 [8]: 95 µM
- Inhibition % [8]: 96%
